Laboratory results published in PMC12406253, “Exploration of the Neuromodulatory Properties of Fyn and GSK-3β Kinases Exploiting 7‑Azaindole-Based Inhibitors” (Journal of Medicinal Chemistry, 2025).

Columns and labels:
[1] = system: neurospheres (NPCs from the subventricular zone); assay: Neurosphere differentiation, immunofluorescence of DCX, GFAP, OLIG2; assay type: cell-based, mice; settings: 1 μM; 7 days
Excerpt: Lastly, we move forward to evaluate the neuromodulatory profile of selected compounds that involves the capability to polarize the spontaneous differentiation of neurospheres, which potentially can maturate in neurons or macroglia, such as astrocytes and oligodendrocytes. Modulating NPC differentiation is especially relevant under neurodegenerative conditions as it could offer an intriguing opportunity to achieve polyhedric therapeutic effects. Importantly, neuronal differentiation may help to counteract the progressive neuronal loss, while promoting oligodendrocyte phenotype could support remyelination and neuronal function and the astrocytic polarization may aid to foster a neuroprotective profile. Particularly, after 7 days of treatment at 1 μM, in the same experimental conditions previously reported, cells were fixed and stained with different antibody markers such as doublecortin (DCX) for the immature neurons, glial fibrillary acidic protein (GFAP) for astrocytes, and oligodendrocyte transcription factor 2 (OLIG2) for oligodendrocyte precursors for immunofluorescence analysis (Figure a). […] By driving the maturation of astrocytes, compounds 41 and 43 could exert neuroprotection through multiple mechanisms, including the secretion of neurotrophic factors, enhancement of antioxidant defenses, regulation of water balance, ion homeostasis, and glutamate buffering and recycling. Furthermore, astrocytes support the integrity of the blood–brain barrier (BBB) and aid in the refinement of neural networks via synaptic pruning, further reinforcing their role in preserving brain function and structure.
NSCs were initially obtained by SVZ microdissection of 6 months-old C57BL/6N wild-type male mice (Mus musculus) and routinely cultured in suspension in DMEM-F12 (Gibco; ThermoFisher Scientific, Waltham, MA, USA) supplemented with 2 mM glutamine, 10 μg/mL insulin from bovine pancreas (Sigma-Aldrich; St Louis, MO, USA), 20 ng/mL epidermal growth factor (EGF; PeproTech EC, London, UK), 20 ng/mL fibroblast growth factor-2 (FGF2; PeproTech), 1% N2 (ThermoFisher Scientific), 1% B27 (ThermoFisher Scientific), 10 units/mL penicillin, and 10 μg streptomycin.
To assess the effect of compounds of interest in NSCs differentiation, 30 spheres were plated on 13 mm glass coverslips, previously coated with Matrigel matrix (Corning; New York, USA), in complete DMEM F-12 medium, and treated with 1 μM of compounds of interest. After 7DIV, neurospheres were fixed for 20 min with 4% PFA in PBS 0.1% pH 7.4. Fixed neurospheres were permeabilized in 0.1% Triton/PBS and nonspecific sites were blocked for 1 h with 0.1% Triton/PBS and 5% normal goat serum (Sigma-Aldrich; St Louis, MO, USA). Cells were then incubated overnight at 4 °C with the following primary antibodies: Anti-Doublecortin DCX (Abcam, Cambridge, UK), GFAP (Dakopatts), OLIG2 (Santa Cruz Biotechnology), 1:500 dilution in 0.1% Triton/PBS with 2% normal goat serum. After 3 washes in 0.1% Triton/PBS, specific secondary antibodies were added for 2 h at RT in the dark: Donkey anti-Mouse IgG Alexafluor 555 (Abcam, Cambridge, UK), Goat anti-Rabbit IgG Alexafluor 555 (Abcam, Cambridge, UK), 1:1000 dilution in 0.1% Triton/PBS with 2% normal goat serum. Following 3 washes in 0.1% Triton/PBS, nuclei were stained with DAPI (2 μg/mL, Sigma-Aldrich) for 5 min. Glass coverslips were mounted by using Ultracruz Aqueous Mounting Medium with DAPI (Santa Cruz Biotechnology). Neurospheres confocal images were obtained with a Nikon EZ-C1 microscope (60× objective) and the z-stack function (1024 steps and 1 μm thickness layers; 40 total stacks). 3D image reconstruction was performed by using Fiji ImageJ2 software, z-project plugin, and selecting the sum stacks’ function. Fluorescence intensity index was estimated as the ratio of markers’ positive cells intensity/total cells fluorescence intensity stained with DAPI per ROI.

[2] = biological target: T1, CaMKI(h) (Homo sapiens, UniProt Q14012); assay: Eurofins KinaseProfiler radiometric kinase assay; assay type: biochemical; settings: read-out: CaMKI(h) % Residual activity
T1 construct: purchased Eurofins KinaseProfiler (Eurofins Cerep)

[3] = biological target: T2, CK1γ1(h) (Homo sapiens, UniProt Q9HCP0); assay: Eurofins KinaseProfiler radiometric kinase assay; assay type: biochemical; settings: read-out: CK1γ1(h) % Residual activity
T2 construct: purchased Eurofins KinaseProfiler (Eurofins Cerep)

[4] = biological target: T3, IGF-1R(h) (Homo sapiens, UniProt P08069); assay: Eurofins KinaseProfiler radiometric kinase assay; assay type: biochemical; settings: read-out: IGF-1R(h) % Residual activity
T3 construct: purchased Eurofins KinaseProfiler (Eurofins Cerep)

[5] = biological target: T4, c-RAF(h) (Homo sapiens, UniProt P04049); assay: Eurofins KinaseProfiler radiometric kinase assay; assay type: biochemical; settings: read-out: c-RAF(h) % Residual activity
T4 construct: purchased Eurofins KinaseProfiler (Eurofins Cerep)

[6] = biological target: T5, DRAK1(h) (Homo sapiens, UniProt Q9UEE5); assay: Eurofins KinaseProfiler radiometric kinase assay; assay type: biochemical; settings: for remaining activity at 10 µM: read-out: DRAK1(h) % Residual activity
T5 construct: purchased Eurofins KinaseProfiler (Eurofins Cerep)
T5 sequence (Q9UEE5 1-414): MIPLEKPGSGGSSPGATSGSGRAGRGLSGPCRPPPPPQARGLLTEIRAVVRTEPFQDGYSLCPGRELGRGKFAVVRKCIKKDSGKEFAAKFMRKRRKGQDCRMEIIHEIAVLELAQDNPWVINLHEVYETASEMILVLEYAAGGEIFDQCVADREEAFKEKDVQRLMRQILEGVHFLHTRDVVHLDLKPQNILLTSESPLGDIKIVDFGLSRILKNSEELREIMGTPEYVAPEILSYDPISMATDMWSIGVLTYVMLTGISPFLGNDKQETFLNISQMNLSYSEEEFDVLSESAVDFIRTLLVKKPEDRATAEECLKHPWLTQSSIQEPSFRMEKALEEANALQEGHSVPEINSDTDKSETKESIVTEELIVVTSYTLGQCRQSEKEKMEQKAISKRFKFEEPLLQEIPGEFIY

[7] = biological target: T6, CDK6/cyclinD3(h) (Homo sapiens, UniProt Q00534); assay: Eurofins KinaseProfiler radiometric kinase assay; assay type: biochemical; settings: read-out: CDK6/cyclinD3(h) % Residual activity
T6 construct: purchased Eurofins KinaseProfiler (Eurofins Cerep)

[8] = biological target: T7, p70S6K(h) (Homo sapiens, UniProt P23443); assay: Eurofins KinaseProfiler radiometric kinase assay; assay type: biochemical; settings: read-out: p70S6K(h) % Residual activity
T7 construct: purchased Eurofins KinaseProfiler (Eurofins Cerep)

[9] = biological target: T8, ALK(h) (Homo sapiens, UniProt Q9UM73); assay: Eurofins KinaseProfiler radiometric kinase assay; assay type: biochemical; settings: read-out: ALK(h) % Residual activity
T8 construct: purchased Eurofins KinaseProfiler (Eurofins Cerep)

[10] = biological target: T9, Rsk1(h) (Homo sapiens, UniProt Q15418); assay: Eurofins KinaseProfiler radiometric kinase assay; assay type: biochemical; settings: for remaining activity at 10 µM: read-out: Rsk1(h) % Residual activity
T9 construct: purchased Eurofins (Eurofins Cerep) KinaseProfiler

[11] = biological target: T10, PAK2(h) (Homo sapiens, UniProt Q13177); assay: Eurofins KinaseProfiler radiometric kinase assay; assay type: biochemical; settings: read-out: PAK2(h) % Residual activity
T10 construct: purchased Eurofins KinaseProfiler (Eurofins Cerep)

[12] = biological target: T11, Pim-1(h) (Homo sapiens, UniProt P11309); assay: Eurofins KinaseProfiler radiometric kinase assay; assay type: biochemical; settings: read-out: Pim-1(h) % Residual activity
T11 construct: purchased Eurofins KinaseProfiler (Eurofins Cerep)

[13] = biological target: T12, PI3 Kinase (p120γ)(h) (Homo sapiens, UniProt P48736); assay: Eurofins KinaseProfiler radiometric kinase assay; assay type: biochemical; settings: read-out: PI3 Kinase (p120γ)(h) % Residual activity
T12 construct: purchased Eurofins (Eurofins Cerep) KinaseProfiler

T9 sequence (Q15418 whole entry): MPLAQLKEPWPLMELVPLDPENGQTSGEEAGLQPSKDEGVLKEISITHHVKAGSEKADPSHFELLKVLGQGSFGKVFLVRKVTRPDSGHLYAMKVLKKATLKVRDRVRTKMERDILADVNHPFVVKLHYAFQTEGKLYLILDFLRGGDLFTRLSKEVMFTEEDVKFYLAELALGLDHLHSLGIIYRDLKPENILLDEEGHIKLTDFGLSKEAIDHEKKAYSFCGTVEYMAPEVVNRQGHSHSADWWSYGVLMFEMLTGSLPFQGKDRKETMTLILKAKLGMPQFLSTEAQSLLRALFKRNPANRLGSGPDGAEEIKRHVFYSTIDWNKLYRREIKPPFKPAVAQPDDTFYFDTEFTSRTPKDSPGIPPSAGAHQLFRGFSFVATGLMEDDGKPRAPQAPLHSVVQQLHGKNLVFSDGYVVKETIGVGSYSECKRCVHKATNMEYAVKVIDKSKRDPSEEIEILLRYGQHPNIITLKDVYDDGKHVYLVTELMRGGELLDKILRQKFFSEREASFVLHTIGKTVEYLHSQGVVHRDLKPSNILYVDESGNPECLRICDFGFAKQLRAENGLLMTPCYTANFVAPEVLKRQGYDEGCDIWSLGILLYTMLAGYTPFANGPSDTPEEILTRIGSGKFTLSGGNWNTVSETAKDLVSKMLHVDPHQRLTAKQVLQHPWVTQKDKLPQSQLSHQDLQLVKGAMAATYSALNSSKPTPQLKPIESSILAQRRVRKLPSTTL
T3 sequence (P08069 31-1367): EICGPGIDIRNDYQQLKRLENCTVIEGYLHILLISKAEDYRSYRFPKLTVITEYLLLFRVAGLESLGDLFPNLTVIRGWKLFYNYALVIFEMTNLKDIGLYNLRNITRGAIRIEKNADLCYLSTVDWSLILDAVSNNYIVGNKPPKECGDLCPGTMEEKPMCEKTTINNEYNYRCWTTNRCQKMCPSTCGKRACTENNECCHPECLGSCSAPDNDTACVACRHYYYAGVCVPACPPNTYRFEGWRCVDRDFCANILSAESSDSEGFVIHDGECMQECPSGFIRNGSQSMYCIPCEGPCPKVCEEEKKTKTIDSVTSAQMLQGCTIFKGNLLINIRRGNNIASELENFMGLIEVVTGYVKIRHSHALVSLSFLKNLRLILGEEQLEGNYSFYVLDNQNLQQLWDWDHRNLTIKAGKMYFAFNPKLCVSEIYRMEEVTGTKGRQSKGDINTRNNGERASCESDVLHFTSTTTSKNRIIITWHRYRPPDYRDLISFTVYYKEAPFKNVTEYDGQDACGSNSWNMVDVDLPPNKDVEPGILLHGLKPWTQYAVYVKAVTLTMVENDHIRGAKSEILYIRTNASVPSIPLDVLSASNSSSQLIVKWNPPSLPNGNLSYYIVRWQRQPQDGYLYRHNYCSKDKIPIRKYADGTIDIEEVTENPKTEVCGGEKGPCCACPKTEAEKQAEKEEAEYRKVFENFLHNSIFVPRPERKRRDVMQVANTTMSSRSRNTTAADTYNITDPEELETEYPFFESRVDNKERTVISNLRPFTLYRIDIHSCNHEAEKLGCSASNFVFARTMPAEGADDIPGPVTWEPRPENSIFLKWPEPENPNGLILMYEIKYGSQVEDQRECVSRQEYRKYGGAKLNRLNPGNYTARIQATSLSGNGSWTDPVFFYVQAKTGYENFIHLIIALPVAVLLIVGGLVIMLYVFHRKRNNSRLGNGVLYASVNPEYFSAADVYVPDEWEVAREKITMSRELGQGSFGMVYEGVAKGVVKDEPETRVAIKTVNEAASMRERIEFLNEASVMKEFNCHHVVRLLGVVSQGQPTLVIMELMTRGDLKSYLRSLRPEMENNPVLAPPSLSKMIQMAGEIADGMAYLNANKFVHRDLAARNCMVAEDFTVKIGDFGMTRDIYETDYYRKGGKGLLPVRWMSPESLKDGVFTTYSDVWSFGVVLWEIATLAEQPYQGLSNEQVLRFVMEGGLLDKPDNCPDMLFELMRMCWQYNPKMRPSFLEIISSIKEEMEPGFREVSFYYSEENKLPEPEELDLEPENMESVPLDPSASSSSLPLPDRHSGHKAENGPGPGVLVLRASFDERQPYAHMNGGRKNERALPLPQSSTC
T6 sequence (Q00534 whole entry): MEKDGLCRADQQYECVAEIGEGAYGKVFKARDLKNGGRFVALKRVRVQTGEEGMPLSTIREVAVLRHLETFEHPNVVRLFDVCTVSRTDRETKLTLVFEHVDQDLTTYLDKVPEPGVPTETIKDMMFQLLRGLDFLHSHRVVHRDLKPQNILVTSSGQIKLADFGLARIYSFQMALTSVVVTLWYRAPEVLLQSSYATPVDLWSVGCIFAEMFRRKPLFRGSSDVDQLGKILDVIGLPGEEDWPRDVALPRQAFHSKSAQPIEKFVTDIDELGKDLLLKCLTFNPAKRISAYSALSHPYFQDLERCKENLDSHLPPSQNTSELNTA
T6 sequence (P30281 whole entry partner): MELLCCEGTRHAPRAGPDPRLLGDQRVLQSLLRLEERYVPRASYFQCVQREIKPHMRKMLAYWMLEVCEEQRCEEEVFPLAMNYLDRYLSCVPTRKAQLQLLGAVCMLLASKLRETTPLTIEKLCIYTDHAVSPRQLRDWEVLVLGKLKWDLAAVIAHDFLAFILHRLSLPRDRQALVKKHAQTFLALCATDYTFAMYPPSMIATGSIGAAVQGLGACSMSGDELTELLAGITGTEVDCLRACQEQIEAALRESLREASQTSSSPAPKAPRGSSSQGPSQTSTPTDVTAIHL
T2 sequence (Q9HCP0 whole entry): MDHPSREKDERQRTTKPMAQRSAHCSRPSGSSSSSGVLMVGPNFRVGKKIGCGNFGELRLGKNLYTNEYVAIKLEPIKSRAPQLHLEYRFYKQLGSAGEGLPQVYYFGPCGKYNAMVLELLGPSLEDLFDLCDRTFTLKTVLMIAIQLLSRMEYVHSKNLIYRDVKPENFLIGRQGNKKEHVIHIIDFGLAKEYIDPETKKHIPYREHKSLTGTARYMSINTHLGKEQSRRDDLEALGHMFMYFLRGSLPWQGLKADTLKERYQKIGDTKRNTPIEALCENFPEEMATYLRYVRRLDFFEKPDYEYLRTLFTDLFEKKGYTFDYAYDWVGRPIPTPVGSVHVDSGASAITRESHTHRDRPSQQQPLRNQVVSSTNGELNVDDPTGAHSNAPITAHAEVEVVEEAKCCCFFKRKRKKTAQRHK
T10 sequence (Q13177 whole entry): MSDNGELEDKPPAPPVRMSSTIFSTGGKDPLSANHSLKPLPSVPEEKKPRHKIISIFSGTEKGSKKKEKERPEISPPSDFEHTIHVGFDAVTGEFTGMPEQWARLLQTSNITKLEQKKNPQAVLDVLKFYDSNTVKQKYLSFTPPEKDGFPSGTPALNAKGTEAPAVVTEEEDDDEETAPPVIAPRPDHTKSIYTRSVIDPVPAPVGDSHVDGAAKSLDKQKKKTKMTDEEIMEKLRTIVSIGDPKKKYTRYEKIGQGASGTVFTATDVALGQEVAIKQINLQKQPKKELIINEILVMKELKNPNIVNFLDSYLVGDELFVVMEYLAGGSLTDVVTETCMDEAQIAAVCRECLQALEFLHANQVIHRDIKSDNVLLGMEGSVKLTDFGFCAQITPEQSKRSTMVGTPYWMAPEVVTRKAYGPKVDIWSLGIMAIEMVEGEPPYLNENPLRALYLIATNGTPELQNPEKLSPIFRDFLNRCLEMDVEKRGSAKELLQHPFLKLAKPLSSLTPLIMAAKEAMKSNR
T1 sequence (Q14012 whole entry): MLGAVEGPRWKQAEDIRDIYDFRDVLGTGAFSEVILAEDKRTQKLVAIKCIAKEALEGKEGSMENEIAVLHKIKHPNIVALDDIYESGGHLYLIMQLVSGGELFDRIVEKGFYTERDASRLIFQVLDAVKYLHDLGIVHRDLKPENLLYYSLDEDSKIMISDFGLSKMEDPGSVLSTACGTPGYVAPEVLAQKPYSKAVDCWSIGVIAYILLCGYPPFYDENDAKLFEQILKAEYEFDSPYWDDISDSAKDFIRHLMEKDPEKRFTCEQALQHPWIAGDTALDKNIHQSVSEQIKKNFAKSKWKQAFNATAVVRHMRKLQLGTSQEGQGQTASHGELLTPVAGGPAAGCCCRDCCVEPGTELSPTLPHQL
T7 sequence (P23443 whole entry): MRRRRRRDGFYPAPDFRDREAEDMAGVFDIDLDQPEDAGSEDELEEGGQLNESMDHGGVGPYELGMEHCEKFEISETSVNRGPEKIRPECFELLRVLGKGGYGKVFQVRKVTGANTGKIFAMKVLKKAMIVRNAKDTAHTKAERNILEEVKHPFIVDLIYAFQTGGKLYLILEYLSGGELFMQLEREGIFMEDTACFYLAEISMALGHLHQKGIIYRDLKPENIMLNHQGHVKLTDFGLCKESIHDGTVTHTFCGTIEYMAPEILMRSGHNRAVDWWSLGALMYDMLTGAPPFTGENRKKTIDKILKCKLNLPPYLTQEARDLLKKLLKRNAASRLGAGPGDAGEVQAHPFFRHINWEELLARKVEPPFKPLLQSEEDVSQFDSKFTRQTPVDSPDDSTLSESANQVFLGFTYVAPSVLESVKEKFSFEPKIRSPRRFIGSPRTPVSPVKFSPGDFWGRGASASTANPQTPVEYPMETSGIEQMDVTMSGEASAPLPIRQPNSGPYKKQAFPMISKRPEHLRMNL
T11 sequence (P11309 whole entry): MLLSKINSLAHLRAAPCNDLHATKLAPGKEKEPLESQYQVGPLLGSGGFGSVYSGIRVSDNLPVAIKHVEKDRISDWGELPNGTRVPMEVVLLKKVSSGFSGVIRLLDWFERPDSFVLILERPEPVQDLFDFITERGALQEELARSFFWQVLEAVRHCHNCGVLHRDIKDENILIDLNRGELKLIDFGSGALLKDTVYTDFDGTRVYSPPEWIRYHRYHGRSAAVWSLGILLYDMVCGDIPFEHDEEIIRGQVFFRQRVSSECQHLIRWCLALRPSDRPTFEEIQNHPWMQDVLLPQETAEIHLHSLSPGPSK

Structure (SMILES) | Differentiation toward astrocytes (GFAP) [1] | Differentiation toward oligodendrocytes (OLIG2) [1] | remaining activity at 10 µM [2] [%] | remaining activity at 10 µM [3] [%] | remaining activity at 10 µM [4] [%] | remaining activity at 10 µM [5] [%] | inhibition at 10 µM [6] [%] | remaining activity at 10 µM [6] [%] | remaining activity at 10 µM [7] [%] | remaining activity at 10 µM [8] [%] | remaining activity at 10 µM [9] [%] | remaining activity at 10 µM [10] [%] | remaining activity at 10 µM [11] [%] | remaining activity at 10 µM [12] [%] | remaining activity at 10 µM [13] [%] | inhibition at 10 µM [10] [%]
Br.Cc1sc(NCc2ccccc2)nc1-c1c[nH]c2ncc(Br)cc12 [Compound 41, N-Benzyl-4-(5-bromo-1H-pyrrolo[2,3-b]pyridin-3-yl)-5-methylthiazol-2-amine Hydrobromide] | notably directed the differentiation toward the astrocytic phenotype | markedly deleterious for oligodendrocytes | 89 | 93 | 83 | 52 | > 90 | 9 | 86 | 50 | 38 | 44 | 75 | 20 | 80 | –
Br.Cc1sc(NCc2ccnc(Cl)c2)nc1-c1c[nH]c2ncccc12 [Compound 43, N-((2-Chloropyridin-4-yl)methyl)-5-methyl-4-(1H-pyrrolo[2,3-b]pyridin-3-yl)thiazol-2-amine Hydrobromide] | notably directed the differentiation toward the astrocytic phenotype | this effect was mitigated | 80 | 77 | 68 | 34 | – | 14 | 90 | 14 | 61 | 3 | 72 | 55 | 94 | > 90
